# Measurements as given in patent publication US6534289B1, “Nucleic acids encoding mGLuR/CaR chimera” (NPS Pharmaceuticals, Inc., priority 1995, dated 2003).
# What was measured:
# human CaR = molecular target: T1, human CaR (Homo sapiens, UniProt P41180); experiment: Xenopus oocyte voltage clamp, Cl− currents, CaR; type: cell-based
# T1 construct: expressed in transfected cells; host or cells: Xenopus laevis oocytes injected with in vitro transcribed RNA from phPCaR4.0
# T1 sequence (P41180 20-1078): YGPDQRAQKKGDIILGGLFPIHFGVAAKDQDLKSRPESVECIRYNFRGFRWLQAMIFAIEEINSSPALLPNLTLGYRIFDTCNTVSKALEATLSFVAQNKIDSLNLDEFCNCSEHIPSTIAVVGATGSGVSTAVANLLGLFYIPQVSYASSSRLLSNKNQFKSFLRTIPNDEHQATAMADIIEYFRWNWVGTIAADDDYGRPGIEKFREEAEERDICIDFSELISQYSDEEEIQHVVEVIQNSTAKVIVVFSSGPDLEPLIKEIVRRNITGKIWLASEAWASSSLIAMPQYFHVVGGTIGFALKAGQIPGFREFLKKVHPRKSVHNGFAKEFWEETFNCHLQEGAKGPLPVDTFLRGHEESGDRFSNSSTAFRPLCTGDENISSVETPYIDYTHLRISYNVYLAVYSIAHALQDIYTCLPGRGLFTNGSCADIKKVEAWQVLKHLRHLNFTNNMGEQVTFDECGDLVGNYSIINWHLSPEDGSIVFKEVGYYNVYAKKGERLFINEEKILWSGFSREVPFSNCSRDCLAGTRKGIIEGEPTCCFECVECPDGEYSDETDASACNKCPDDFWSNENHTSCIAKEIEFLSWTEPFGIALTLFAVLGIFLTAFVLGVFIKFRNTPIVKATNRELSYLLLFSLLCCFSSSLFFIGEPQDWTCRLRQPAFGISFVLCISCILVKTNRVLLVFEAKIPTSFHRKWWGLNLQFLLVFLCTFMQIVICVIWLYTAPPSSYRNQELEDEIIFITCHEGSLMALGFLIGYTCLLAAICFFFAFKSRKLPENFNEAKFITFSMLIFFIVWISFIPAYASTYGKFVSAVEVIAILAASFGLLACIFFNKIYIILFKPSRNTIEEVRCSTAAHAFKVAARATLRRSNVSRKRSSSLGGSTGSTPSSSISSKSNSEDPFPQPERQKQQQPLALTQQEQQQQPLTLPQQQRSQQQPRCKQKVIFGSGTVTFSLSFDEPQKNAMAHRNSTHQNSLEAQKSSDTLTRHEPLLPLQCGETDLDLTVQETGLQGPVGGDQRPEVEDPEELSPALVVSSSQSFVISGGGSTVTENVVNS
# [1] = tested on: HEK293 cells expressing pCEPCaR/R1; experiment: HEK293/pCEPCaR/R1 Fura assay; type: cell-based, human; details: fura-2 loaded stably transfected HEK293 cells, FIG. 9
# Description: The DNA from plasmid pCaR/R1 was digested and cloned into the commercially available episomal mammalian expression vector, pCEP4 (Invitrogen), using the restriction enzymes Kpn I and Not I. The ligation products were transfected into DH5a cells which had been made competent for DNA transformation. […] A clone was selected from the colonies which grew. This clone, pCEPCaR/R1 was characterized by restriction enzyme digestion.
# Human embryonic kidney cells (293, ATCC, CRL 1573) were grown in a routine manner. Cells were plated in 10 cm cell-culture plates in Dulbecco's modified Eagle's medium (D-MEM) containing 10% fetal calf serum (FCS) and 1×Penicillin-Streptomycin (PS, Life Technologies) so that they would be ˜70% confluent after an overnight incubation. […]
# Measurements of intracellular calcium release in response to increases in extracellular calcium is quantitated using the Fura assay (Parks et al. 1989). […] Measurements of fluorescence are performed at 37° C. with constant stirring using a custom-built spectrofluorimeter (Biomedical Instrumentation Group, University of Pennsylvania). […] To calibrate fluorescence signals, digitonin (Sigma, St. Louis, Mo.; catalog # D 5628; 50 μg/ml, final) is added to obtain Fmax, and the apparent Fmin is determined by adding EGTA (10 mM, final) and Tris base (pH ˜10, final). […]
# mGluR1/CaR = molecular target: T2, mGluR1/CaR (UniProt P23385+P41180); experiment: Xenopus oocyte voltage clamp, Cl− currents, mGluR1/CaR chimera; type: cell-based, rat mGluR1 / human calcium receptor; details: FIG. 6
# T2 construct: expressed in transfected cells; host or cells: Xenopus laevis oocytes injected with in vitro transcribed RNA
# T2 sequence (P23385+P41180 fused): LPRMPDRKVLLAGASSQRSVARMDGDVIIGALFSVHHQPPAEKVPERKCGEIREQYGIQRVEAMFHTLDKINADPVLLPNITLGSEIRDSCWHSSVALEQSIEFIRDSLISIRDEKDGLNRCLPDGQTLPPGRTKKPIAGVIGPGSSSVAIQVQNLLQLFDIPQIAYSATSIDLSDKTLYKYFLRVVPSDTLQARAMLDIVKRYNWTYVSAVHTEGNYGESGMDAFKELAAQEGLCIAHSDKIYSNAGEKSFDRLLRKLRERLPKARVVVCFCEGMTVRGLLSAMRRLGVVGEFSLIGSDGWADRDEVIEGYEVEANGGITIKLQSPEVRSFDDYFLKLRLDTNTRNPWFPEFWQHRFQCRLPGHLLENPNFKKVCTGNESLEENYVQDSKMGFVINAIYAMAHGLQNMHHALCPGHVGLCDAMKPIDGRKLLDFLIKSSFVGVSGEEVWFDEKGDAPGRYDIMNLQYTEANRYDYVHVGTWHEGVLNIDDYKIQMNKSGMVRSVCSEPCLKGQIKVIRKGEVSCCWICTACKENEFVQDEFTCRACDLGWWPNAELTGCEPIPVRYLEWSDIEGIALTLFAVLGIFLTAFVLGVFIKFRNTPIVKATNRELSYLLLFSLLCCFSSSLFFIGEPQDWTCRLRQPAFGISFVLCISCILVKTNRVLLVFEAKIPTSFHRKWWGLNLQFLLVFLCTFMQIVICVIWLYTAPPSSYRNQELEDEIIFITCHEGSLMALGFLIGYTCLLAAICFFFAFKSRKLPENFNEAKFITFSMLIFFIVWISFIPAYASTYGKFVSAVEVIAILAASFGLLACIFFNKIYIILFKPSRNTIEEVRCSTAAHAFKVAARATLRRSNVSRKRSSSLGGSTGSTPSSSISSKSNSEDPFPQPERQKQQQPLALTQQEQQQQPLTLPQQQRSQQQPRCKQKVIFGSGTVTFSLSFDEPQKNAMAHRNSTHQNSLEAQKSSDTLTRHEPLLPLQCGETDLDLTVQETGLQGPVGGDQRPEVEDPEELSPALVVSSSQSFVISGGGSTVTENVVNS
compound,measurement,setting,value
[Ca+2] [calcium],"activation of CaR, response amplitudes (Cl− currents in response to increases in intracellular Ca^2+)","human CaR; Xenopus oocyte, increasing extracellular calcium, FIG. 7",activation
same,intracellular calcium,[1],increases in intracellular calcium
N[C@@H](CCC(=O)O)C(=O)O [l-glutamate],Cl− current,"human CaR; Xenopus oocytes injected with human CaR RNA, FIG. 8B",elicits oscillatory increases in Cl− current
N[C@@H](Cn1oc(=O)[nH]c1=O)C(=O)O [quisqualate],activation of mGluR1/CaR as measured by Cl− currents generated in response to the release of intracellular Ca^2+,mGluR1/CaR,activation
